Laboratory results published in patent publication US20160207893A1, “NOVEL CALCIUM MODULATORS” (Myotherix, Inc., priority 2014, published 2016).

Tests used:
[1] = test system: human Duchenne muscular dystrophy (hDMD) myoblast cells; assay: Calcium release, SR calcium leak and SOCE in Fluo-4/AM-loaded hDMD myoblasts (CPA protocol); format: cell-based; details: 30 uM; for Integrated CPA-Induced CaT (area under the curve) (% Reduction in Peak A): CPA in Ca2+-free solution; for % Reduction in Peak CaT after return to 2 mM Ca^2+ (% Reduction in Peak E): SOCE-induced calcium transit
Protocol: Parameters measured are A, the peak CPA-induced calcium transit (F/F0); B, the maximum rate of rise of CPA-induced calcium transit (+ΔF/s); C, the maximum rate of decline of CPA-induced calcium transit (−ΔF/s); D, the integrated CPA-induced calcium transit (F.s); and E, the SOCE-induced calcium transit (F/F0).
Cell Preparation: De-identified telomerized human Duchenne muscular dystrophy (hDMD) myoblast cells were grown under standard cell culture conditions in 35 mm glass bottom petri dishes (MatTek, Ashland, Mass.) specially designed for perfusion and imaging.
Uncoated coverslips were coated with gelatin and hDMD cells seeded at ˜40-60% confluency 24 hours prior to fluorescence experiments.
Step 1. Cell Loading with the Fluorescent Ca^2+ Indicator Fluo-4/AM (Cell Permeant Form): hDMD cells were loaded with 5 μM Fluo-4/AM (Thermo Fisher Scientific) for 45 min at room temperature in the same buffer used for experiments of which composition is described below. After the incubation, the cells are washed twice with the same buffer without the indicator. Fluorescence experiments were initiated after a 30 min incubation in indicator-free buffer to allow for de-esterification of the dye and conversion to its acid active form by endogenous esterases.
Step 2. Fluo-4 Fluorescence Detection: A 35 mm petri dish containing Fluo-4-loaded myoblasts was set on the stage of an inverted Nikon Diaphot 300 epifluorescence microscope equipped with a dual PMT ratiometric fluorimeter system (Model SFX-2, Solamere Technology Group, Salt Lake City, Utah) and optical switch (Model DX-1000, Salt Lake City, Utah), a B/W camera and monitor, a PC computer running on Windows 7 Pro operating system and A/D-D/A data acquisition hardware (Axon Instruments Inc., Digidata 1440 interface) and software (Axon Instruments Inc., Axoscope v. 9.2). During a typical experiment, ca. one third to one half of a cell (field of view narrowed by a manually-controlled diaphragm) is visualized on the B/W TV monitor with an oil immersion 40× Fluor objective (NA=1.3) and defines the area from which epifluorescence intensity will be measured by one of the two PMTs (non-ratiometric measurements). For all experiments, the cells are excited by visible light produced by a 100 W mercury arc lamp centered at 488 nm. Emitted fluorescence at 520 nm is transmitted to the lateral port of the microscope by means of dichroic mirrors and a specific barrier filter located in one of three microscope filter cubes. Before each day of experiments, background fluorescence is cancelled by measuring emitted fluorescence in an unloaded cell. For all cells loaded with Fluo-4/AM, relative fluorescence intensity at 520 nm (filtered at 5 Hz) is normalized to Fluo-4 fluorescence intensity measured in Ca^2+-free medium (F/F0) prior to the addition of 10 μM cyclopiazonic acid (CPA; see protocol description below) to monitor Ca^2+ leakage from the sarcoplasmic reticulum (SR). Free intracellular Ca^2+ concentration is continuously monitored (>20 min; acquisition rate=200 Hz) with no evidence of photobleaching due to low level of excitation light intensity used and sensitivity of the Hamamatsu PMT set to high power.
After mounting the petri dish containing Fluo-4-loaded cells on the microscope stage, cell perfusion with normal physiological salt solutions (PSS) containing 2 mM Ca^2+ was initiated. A myoblast cell was then chosen under normal illumination. Fluo-4 fluorescence intensity recording was then initiated for 2 to 3 minutes to assess the level of loading and stability of the measurement. Once these conditions were met, the solution was switched to Ca^2+-free PSS for 5 min, and then switched for another 5 min to Ca^2+-free PSS containing only vehicle (Control; maximal concentration of 0.1% dimethyl sulfoxide) or vehicle plus drug to be tested (Test). […]

[2] = Plasma stability (incubation in mouse plasma, LC/MS/MS); format: in vitro ADME; details: for Plasma Stability, Time 0 min / Plasma Stability, Time 30 min / Plasma Stability, Time 60 min / Plasma Stability, Time 240 min: 37° C., 20 μM, parent remaining vs 0-min control
Protocol: The assay was carried out in 96-well microtiter plates. Compounds were incubated at 37° C. in the presence of the plasma. Reaction mixtures (50 μL) contained a final concentration of 20 μM test compound. The extent of metabolism was calculated as the disappearance of the test compound, compared to the 0-min control reaction incubations. Eucatropine was included as a positive control to verify assay performance.
At each of the time points, 500 μL of quench solution (100% acetonitrile with 0.1% formic acid) with internal standard was transferred to each well. Plates were sealed, vortexed, and centrifuged at 4° C. for 15 minutes at 4000 rpm. The supernatant was transferred to fresh plates for LC/MS/MS analysis.
All samples were analyzed on LC/MS/MS using an AB Sciex API 4000 instrument, coupled to a Shimadzu LC-20AD LC Pump system. Analytical samples were separated using a Waters Atlantis T3 dC18 reverse phase HPLC column (10 mm×2.1 mm) at a flow rate of 0.5 mL/min. The mobile phase consisted of 0.1% formic acid in water (solvent A) and 0.1% formic acid in 100% acetonitrile (solvent B). Elution conditions are detailed in the table below.

[3] = test system: iCell Cardiomyocytes (hIPS cardiomyocytes); assay: Calcium transient dynamics in cardiomyocytes derived from human stem cells by Kinetic Image Cytometry; format: cell-based
Description: CTD25: Approximates the time elapsed during the first 25% of the transient duration. The measurement assesses the time elapsed from the 75% point of upstroke to the 75% point on the downstroke relative to the peak. Full Width Half Maximum (FWHM): The time elapsed from the 50% point of the upstroke to the 50% point of the down stroke. CTD75: Approximates the time elapsed for 75% of the transient duration. The measurement assesses the time elapsed from the 25% point of upstroke to the 25% point on the down stroke relative to the peak. CTD90: Approximates the time elapsed for 90% of the transient duration. The measurement assesses the time elapsed from the 10% point of upstroke to the 10% point on the down stroke relative to the peak. Decay Time: The time elapsed from the peak to the 50% point of the down stroke T75-25: The time elapsed from the 75% point of the transient maximum to the 25% point of the transient maximum on the down stroke. Beat Rate is assessed by measuring the number of transients observed during the recording period and extrapolating out to the number of expected beats per minute.
Analysis of Test Compounds on Calcium Transient Dynamics in Cardiomyocytes Derived from Human Stem Cells by Kinetic Image Cytometry
Cryopreserved cells (Cellular Dynamics International) were plated onto 96 well tissue culture plates previously coated with Matrigel (250 μg/ml) at a density of 25,000 cells per well, and maintained for two days in plating medium at 37° C. and 7% CO2. After two days in culture, the plating media was replaced with maintenance media and the cells were kept at 37° C. and 7% CO2 with the maintenance media replaced every other day. The cardiomyocytes were maintained in culture for 10 days prior to their use in the assay.
Prior to treatment with the test compounds, the cardiomyocytes were loaded using Fluo-4NW, Hoechst 33342 (200 ng/ml), and 2.5 mM probenecid in the supplied Fluo-4NW assay buffer. Cells were loaded for 1 hour at 37° C.
Test compounds were diluted to their final concentration in Tyrode's solution and brought to 37° C. In addition to standard 2 mM CaCl2 Tyrode's solution, elevated calcium variations using 4 mM and 6 mM CaCl2 were examined in separate test sets.
The hIPS Cardiomyocytes were also prepared for testing with 1 Hz electrical stimulation in standard 2 mM CaCl2 Tyrodes, and test compounds were prepared as described above. […]
Vala Sciences' Kinetic Image Cytometer (KIC™) was used to capture movies of the intracellular calcium transients. The environmental control chamber of the KIC was set to 37° C. and the KIC was fitted with a 20× objective and captured one image of the nuclei (Hoechst), then recorded 10 seconds of spontaneous activity (Fluo-4NW) at 30 fps from each well.

[4] = test system: mdx mice; assay: In vitro force measurement of diaphragm muscle of treated mdx mice; format: in vivo, mouse; details: ca. 60 mg/kg in diet, four weeks of daily treatment (FIG. 8)
Protocol: (§1) mdx C57BL/10 mice (15 mice per group) (Jackson Laboratory; mdx mice stock number 001801; C57BL/10 stock number 000476) were treated with Example 20 formulated in food (347 mg of Example 20 blended into 1 kg of Purina LabDiet Rodent 5001). Based on calculated food consumption, the dose of Example 20 was estimated to be 60 mg/Kg, administered daily in diet for 4 weeks.
Mice were delivered at 4 weeks of age, and acclimatized for an additional seven days prior to initiation of the study. All animals were weighed, and grouped into different treatment groups based on body weight. Each group received an appropriate daily dosage of Example 20 or vehicle. Age and sex-matched C57BL/10 (vehicle) were used as controls. Exposure levels of Example 1 (the metabolism product of Example 20) in mouse plasma was measured in a separate 5-day pharmacokinetic study in mdx mice prior to the initiation of the 4-week study. Plasma samples were also taken at the termination of the 4-week study for pharmacokinetic assessment in which exposure leves of Example 1 were again measured (the results are set out below). The functional measurements (grip strength measurement and exhaustion assay) were performed after treatment. At the end of the trial, the extensor digitorum longus muscle (EDL) and diaphragm in vitro force measurements were taken, and dissection of the mice was performed to collect tissues. […]

[5] = test system: mdx mice; assay: Histology (H&E): muscle regeneration and markers of inflammation in treated mdx mice; format: in vivo, mouse; details: 4-weeks treatment
Protocol: as §1
Mice were delivered at 4 weeks of age, and acclimatized for an additional seven days prior to initiation of the study. All animals were weighed, and grouped into different treatment groups based on body weight. Each group received an appropriate daily dosage of Example 20 or vehicle. Age and sex-matched C57BL/10 (vehicle) were used as controls. Exposure levels of Example 1 (the metabolism product of Example 20) in mouse plasma was measured in a separate 5-day pharmacokinetic study in mdx mice prior to the initiation of the 4-week study. Plasma samples were also taken at the termination of the 4-week study for pharmacokinetic assessment in which exposure leves of Example 1 were again measured (the results are set out below). The functional measurements (grip strength measurement and exhaustion assay) were performed after treatment. At the end of the trial, the extensor digitorum longus muscle (EDL) and diaphragm in vitro force measurements were taken, and dissection of the mice was performed to collect tissues. Histology evaluation (H&E) was performed on the frozen sections of the diaphragm and gastrocnemius muscles for each group.
Diaphragm and gastrocnemius muscles of untreated and drug-treated mice were isolated and included in Killik frozen section medium, frozen and cut into 8-μm thick sections with the muscle fibers oriented transversely using a cryostat. Sections were stained with Hematoxylin & Eosin to evaluate markers of inflammation, muscle degeneration and regeneration and percentage central nuclei according to Grounds (TREAT NMD SOP protocol DMD_M.1.2.007, Quantification of histopathology in Haemotoxylin and Eosin stained muscle sections).

| Plasma Stability, Time 0 min [2] [%] | Plasma Stability, Time 60 min [2] [%] | Plasma Stability, Time 240 min [2] [%] | Structure (SMILES) | Integrated CPA-Induced CaT (area under the curve) (% Reduction in Peak A) [1] [%] | % Reduction in Peak CaT after return to 2 mM Ca^2+ (% Reduction in Peak E) [1] [%] | also measured |
| --- | --- | --- | --- | --- | --- | --- |
| – | – | – | COc1ccc2c(c1)CN(C)CCS2 [Example S107, reference compound] | 74.1 | 52.8 | – |
| 100.0 | 67.4 | 41.0 | CC1CC(OC(=O)C(O)c2ccccc2)CC(C)(C)N1C (stereo not shown) [Eucatropine, reference compound] | – | – | Plasma Stability, Time 30 min [2]: 90.0% |
| – | – | – | COc1ccc2c(n1)CN(Cc1ccc(C(=O)O)cc1)CCS2 [Example 9, 4-((7-Methoxy-2,3-dihydropyrido[2,3-f][1,4]thiazepin-4(5H)-yl)methyl)benzoic acid] | 19.4 | 40.7 | – |
| – | – | – | COC(=O)C1=C(C)NC(C)=C([N+](=O)[O-])C1c1ccccc1C(F)(F)F (stereo not shown) [Bay K8644, reference compound] | – | – | CTD75 relative to vehicle control ([3]; reference compounds at 1 uM, under each experimental condition, 0.1% DMSO vehicle): ≥ 125 % of vehicle control |
| – | – | – | COc1cnc2c(c1)CN(Cc1ccc(C(=O)O)cc1)CCS2 [Example 13, 4-((7-Methoxy-2,3-dihydropyrido[3,2-f][1,4]thiazepin-4(5H)-yl)methyl)benzoic acid] | 25.9 | 80.8 | – |
| 100.0 | 0.6 | 0.3 | [2H]C(c1ccc(C(=O)OCCCCO[N+](=O)[O-])cc1)N1CCSc2ccc(OC)cc2C1([2H])[2H] (stereo not shown) [Example 20] | – | – | maximal force in the diaphragm [4]: significant improvement; specific force in the diaphragm [4]: significant improvement; increase in regenerating fibers/mm^2 in the diaphragm [5]: > 25%; increase in regenerating fibers/mm^2 in the gastrocnemius muscle [5]: > 50%; reduction in inflammatory foci/mm^2 in the gastrocnemius muscle [5]: > 30% |
| 100.0 | 99.8 | 102.1 | [2H]C(c1ccc(C(=O)O)cc1)N1CCSc2ccc(OC)cc2C1([2H])[2H] (stereo not shown) [Example 1, 4-((5,5-Dideutero-7-methoxy-2,3-dihydrobenzo[f][1,4]thiazepin-4(5H)-yl)deuteromethyl)benzoic acid] | – | – | plasma stability after 2-hours of incubation in plasma ([2]; 2-hours of incubation): unchanged; Plasma Stability, Time 30 min [2]: 111.2% |
| – | – | – | COc1ncc2c(n1)CN(Cc1ccc(C(=O)O)cc1)CCS2 [Example 17, 4-((2-Methoxy-6,7-dihydropyrimido[4,5-f][1,4]thiazepin-8(9H)-yl)methyl)benzoic acid] | 23.0 | 21 | – |
| – | – | – | COc1cc2c(cn1)SCCN(Cc1ccc(C(=O)O)cc1)C2 [Example 2, 4-((7-Methoxy-2,3-dihydropyrido[4,3-f][1,4]thiazepin-4(5H)-yl)methyl)benzoic acid] | 43.3 | 41.4 | CTD75 shortened to % of control ([3]; 10 uM, 30 uM (FIG. 5)): 79 % of control; triangulation T75-25 reduced to % of control ([3]; 10 uM, 30 uM (FIG. 5)): 71 % of control; effect on proarrhythmia and calcium transient ([3]; 10 uM, 30 uM, spontaneously beating cells in 4 mM calcium Tyrode's solution (FIG. 4)): dose-related reduction of proarrhythmia and calcium transient shortening |
